From US12178825B2, “Method and compositions for forming a copper-containing complex and uses thereof” (COLD SPRING HARBOR LABORATORY, priority 2017, dated 2024) come the findings set out here.

The subject of data set [1] is ATP7B-knockdown HepG2 cells. The data set can be described thus: Copper-induced toxicity, MTT cell survival. Type of data set: cell-based. Particulars: copper concentrations greater than 0.5 mM. The procedure: HepG2 cells purchased from ATCC were cultured in RPMI media containing 10% FBS, 5% CO2 at 37 C. Control (AG09319) and Wilson's disease patient-derived fibroblasts (GM00032, GM00033, GM05257, GM12158, GM05798 and GM11778) were obtained from Coriell Biorepository and cultured in DMEM, 10% FBS, 5% CO2 at 37° C.
For cell survival assays, 10,000 cells were seeded in a 96 well plate and cultured until fully confluent (90%). To these cells, ATP7B siRNAs or scrambled siRNA (negative control) purchased from Qiagen and Santa Cruz Biotechnology were transfected. Lipofectamine RNAiMAX reagent (Thermofischer) and siRNAs were diluted into a final volume of 100 μl in Opti-MEM (Gibco). The mixture was incubated at room temperature for 30 min, following which 800 μl of Opti-MEM was added to the mixture. The above transfection solution was overlaid onto cells at a final concentration of 5 nM siRNA. Transfection of HepG2 cells with scrambled siRNA served as negative control. Twelve hours after the transfection, complete media was added to each well. Following which, knockdown efficiency was checked (24 hours later) and cells were exposed to varying concentration of copper (0-1 mM) for 12 h and cell viability was determined using the MTT assay as previously described (37). […]

The target in data set [2] is T1, PAK1 (Homo sapiens, UniProt Q13153). Put plainly: Kinase activity assay (ADP-Glow, MBP substrate). Type of data set: biochemical. The note with it: in the presence of Cu(II). Here is the method:
In brief, recombinant PAK1 (20 nM) or recombinant MEK1 (20 nM) were incubated for 30 min in 180 μl of kinase buffer in the presence or absence of CuSO4 (5 μM). The activity of the kinase was monitored using MBP as substrate by ADP-Glow assay (Promega) as per user's manual.
Background: ADP-Glo first removes unused ATP, then detects ADP through luciferase.

The next data set deals with MEK1 (Homo sapiens, UniProt Q02750). The data set can be described thus: Cu-binding assay with kinase. Particulars: read-out: Kd, copper binding to MEK1.
MEK1, sequence (Q02750 whole entry): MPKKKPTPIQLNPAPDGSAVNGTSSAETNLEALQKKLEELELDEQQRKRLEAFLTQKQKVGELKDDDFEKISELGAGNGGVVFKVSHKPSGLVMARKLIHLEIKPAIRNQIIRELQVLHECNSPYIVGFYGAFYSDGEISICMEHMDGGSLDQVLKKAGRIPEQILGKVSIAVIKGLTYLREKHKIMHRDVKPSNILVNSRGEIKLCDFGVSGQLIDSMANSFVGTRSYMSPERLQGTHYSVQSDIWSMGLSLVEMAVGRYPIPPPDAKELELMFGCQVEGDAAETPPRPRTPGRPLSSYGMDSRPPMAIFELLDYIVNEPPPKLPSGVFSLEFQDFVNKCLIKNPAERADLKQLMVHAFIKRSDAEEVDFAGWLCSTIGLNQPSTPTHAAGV
Data set [3] has as its target T1, PAK1. The data set can be described thus: Cu-binding assay with kinase. Particulars: read-out: Kd, copper binding to PAK1. Here is the method: Direct binding assays were performed using radiolabelled copper (64 Cu^2+). Varying concentration of radiolabeled copper (0-10 uM) was incubated with recombinant PAK1 (100 nM). Excess copper was removed by running the samples through a desalting column. The amount of metal bound to the protein was quantitated directly by scintillation counting.

A short description of data set [4]: ESI-MS analysis of complex formation with a series of other metal ions. The data set is classed as binding. Particulars: panel of metals. Here is the method: Eight equivalents of M(NO3)2·xH2O or MSO4·xH2O were reacted with 1 eq. of DPM-1001, DPM-1003 or analog 2 (1 mM in H2O). The reaction solutions were stirred at RT, 40° C. and 80° C. for 2 h. Each sample was diluted 5-fold in 50% methanol, 0.1% formic acid and loaded into a 500 μL syringe. A Thermo Vantage triple quadrupole mass spectrometer (Thermo Scientific), equipped with an HESI spray source was coupled to an Accela HPLC system (Thermo Scientific). Mobile phase A consisted of 0.1% formic acid and mobile phase B consisted of 0.1% formic acid in methanol. Isocratic flow was set to 50% B at 200 μL/min. 200 μl samples were injected into the LC flow line via syringe pump at 10 μL/min and electrosprayed into the Vantage triple quadrupole mass spectrometer. A spray voltage of 4.3 kV was used along with a capillary temperature of 350° C. Each full MS scan was 0.5 s and data were collected with a scan range of 200 m/z to 900 m/z over 1 min.

Data set [5] is described as follows: Direct copper-binding assay with radiolabelled copper. Here is the method:
Direct binding assays were performed using radiolabelled copper (64 Cu^2+). Varying concentration of radiolabeled copper (0-100 nM) was incubated with DPM-1001 (100 nM). Excess copper was removed by running the samples through a desalting column. The amount of metal bound to the compound was quantitated directly by scintillation counting. For assays with the protein, His-tagged PTP1B (100 nM) was incubated with varying concentrations of Cu-DPM-1001 complex for 60 min in assay buffer (50 mM Hepes, 100 mM NaCl, 0.1% BSA pH 6.5) at 25° C. Protein-bound and free compound were separated by incubating the protein-inhibitor mixture with 50 μl of 50% Ni-NTA beads for 10 min at 25° C. The beads were washed with assay buffer containing 150 mM NaCl and 25 mM Imidazole three times, and the inhibitor bound to protein was determined by scintillation counting. The amount of bead-bound protein was estimated by BCA protein quantification.
Direct binding assays were performed using radiolabelled copper (64 Cu^2+). […] The amount of metal bound to the compound was quantitated directly by scintillation counting. […] The inhibitor bound to protein was determined by scintillation counting. The amount of bead-bound protein was estimated by BCA protein quantification. For protein quantitation the bead bound protein was precipitated with TCA (25% final) on ice for 30 minutes. […]

For data set [6], the system named is triple-negative breast cancer (TNBC) cell lines. Put plainly: MTT cell survival, triple-negative breast cancer cell lines. Type of data set: cell-based. The procedure: (§1) The MTT assay was used to evaluate cell survival in the absence and presence of different compounds. The thiazolyl blue tetrazolium bromide (MTT) was dissolved in phosphate buffered saline (PBS) at a concentration of 5 mg/ml, filtered, and stored at 4° C. About 10,000 cells were seeded into a 96-well plate and cultured in growth medium containing serum. After 24 hours, cells were treated with the indicated concentrations of DPM-1001 or DPM-1003 (0-100 uM) for 2 hrs. Following which 20 μl MTT was added into each well. An ELISA plate reader (Biotek, Winooski, Vermont, USA) was used to measure the optical density at 490 nm.

For the next data set, the system named is TX mice. The data set can be described thus: Tissue and fecal copper levels (ICP-MS, rhodanine staining). Type of data set: in vivo, mouse. The note with it: TX mice, ICP-MS. The procedure: C3He-Atp7b^tx-j were obtained from the Jackson laboratory. All animal experiments were performed according to protocols approved by the Institutional Animal Use and Care Committee of Cold Spring Harbor laboratory. Mice were injected intraperitoneally (i.p.) with vehicle, or administered DPM-1001 intraperitoneally or orally at 5 mg/kg once every third day, for over a year. At the end of the study animals were euthanized and tissue samples were removed for biochemical studies.
Tissue samples from wild-type or TX mice treated with saline, DPM-1001 or tetrathiomolybdate was washed three times with PBS containing 1 mM EDTA (to remove nonspecifically bound copper). Then, 215 μl of concentrated nitric acid (BDH Aristar Ultra) was added to each sample and incubated overnight. Samples were boiled at 95° C. for 1 h. and approximately 150 μl of each sample was further diluted in 2 ml 2% nitric acid (made freshly from concentrated nitric acid and Milli-Q water) Samples were analyzed on a Thermo Fisher iCAP Qc ICP mass spectrometer in kinetic energy discrimination (KED) mode against a calibration curve of known copper and phosphorus concentrations, with Ga (20 μg/l, Inorganic Ventures) as an internal standard, Each experiment was carried out twice and each condition was repeated in at least triplicate.
Liver tissues from wild-type and TX mice from untreated and DPM-1001-treated mice were sectioned and stained with H&E or rhodanine. Whole-slide, digitized images of H&E-stained tissue were captured using the Aperio ScanScope XT automated scanning system (Vista, CA). Image J software was used to quantitate rhodanine staining.

A further data set relates to TNBC cells. The data set can be described thus: Cellular copper levels by ICP-MS. Type of data set: cell-based. The procedure:
TNBC cells (1×10^6) were plated in a 10-cm culture dish in growth medium. About 24 h after seeding cells, they were untreated or treated with DPM-1001 (2 uM) or DPM-1003 (2 uM) for 2 h. Following which, cells were washed three times with PBS. Then, 215 μl of concentrated nitric acid (BDH Aristar Ultra) was added to each sample and incubated overnight. Samples were boiled at 95° C. for 1 h. and approximately 150 μl of each sample was further diluted in 2 ml 2% nitric acid (made freshly from concentrated nitric acid and Milli-Q water). Samples were analyzed on a Thermo Fisher iCAP Qc ICP mass spectrometer in kinetic energy discrimination (KED) mode against a calibration curve of known copper and phosphorus concentrations, with Ga (20 μg/l, Inorganic Ventures) as an internal standard. Each experiment was carried out twice and each condition was repeated in at least triplicate.

A further data set concerns non-TNBC cell lines. The data set can be described thus: MTT cell survival, non-TNBC cell lines. Type of data set: cell-based. Here is the method:
as §1

The target of another data set is PTP1B (Homo sapiens, UniProt P18031). Put plainly: PTP1B inhibition (Ki). Type of data set: biochemical.
PTP1B, sequence (P18031 whole entry, species assumed): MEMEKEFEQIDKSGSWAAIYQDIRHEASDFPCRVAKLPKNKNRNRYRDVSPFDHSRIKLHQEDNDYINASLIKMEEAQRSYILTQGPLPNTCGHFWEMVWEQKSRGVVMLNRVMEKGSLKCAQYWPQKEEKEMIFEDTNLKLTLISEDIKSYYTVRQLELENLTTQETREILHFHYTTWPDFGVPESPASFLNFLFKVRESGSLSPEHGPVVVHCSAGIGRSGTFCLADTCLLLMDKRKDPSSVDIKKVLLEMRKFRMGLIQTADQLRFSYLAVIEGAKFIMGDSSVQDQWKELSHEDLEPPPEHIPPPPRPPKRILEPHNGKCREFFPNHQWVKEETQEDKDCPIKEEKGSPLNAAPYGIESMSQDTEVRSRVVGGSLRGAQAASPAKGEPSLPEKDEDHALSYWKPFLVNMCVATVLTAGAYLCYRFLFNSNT
For a further data set, the system named is MDA-MB-231 cells. Put plainly: MDA-MB-231 orthotopic xenograft. Type of data set: in vivo, SCID-beige mice. The note with it: mice with TNBC xenograft, 5 mg/kg intraperitoneally every day. Here is the method:
MDA-MB-231 cells (2×10^6) were injected orthotopically into mammary fat pads of SCID-beige mice (Tectonic lab) in 15 μl of a 1:1 mixture with DMEM and growth factor-reduced Matrigel (BD Biosciences). The animals were randomly assigned to three groups to receive saline (control), DPM-1001 (5 mg/kg) or DPM-1003 (5 mg/kg) intraperitoneally everyday once the tumors reached about 200 mm^3. Tumor growth was monitored every third day and volume in mm^3 was measured three times weekly by palpation using the formula: volume=width^2×length/2. Once the tumor volume reached above 500 mm^3 in saline treated mice, the study was terminated. Tumors from all mice were removed for biochemical analysis.

Structures are written as SMILES. Entries after “also recorded” stand apart in the source; their conditions may differ.

T1 sequence (Q13153 whole entry): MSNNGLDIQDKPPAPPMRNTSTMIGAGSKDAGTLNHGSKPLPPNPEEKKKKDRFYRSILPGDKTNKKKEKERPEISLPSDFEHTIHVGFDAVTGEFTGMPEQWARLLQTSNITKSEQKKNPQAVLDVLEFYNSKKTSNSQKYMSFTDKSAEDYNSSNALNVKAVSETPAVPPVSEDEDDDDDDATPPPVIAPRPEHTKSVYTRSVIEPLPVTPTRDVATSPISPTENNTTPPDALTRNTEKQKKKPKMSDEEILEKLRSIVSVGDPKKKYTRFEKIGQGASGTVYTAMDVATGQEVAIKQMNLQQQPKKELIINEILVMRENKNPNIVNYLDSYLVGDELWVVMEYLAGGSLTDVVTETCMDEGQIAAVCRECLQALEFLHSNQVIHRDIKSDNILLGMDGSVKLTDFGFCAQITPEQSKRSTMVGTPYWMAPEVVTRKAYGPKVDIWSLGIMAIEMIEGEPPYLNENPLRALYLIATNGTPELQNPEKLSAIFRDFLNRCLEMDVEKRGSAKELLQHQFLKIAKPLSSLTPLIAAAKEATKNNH

A word on the Kd: it is the constant that tells how readily two partners part at equilibrium. Take `[Cu+2]` [copper]: the “survival of ATP7B-KD1” value in [1] is listed as “less than 20%”. Besides, at PAK1 [2], the “Vmax of PAK1 kinase activity” value was 834.4. For the same compound, the values for the Kd on MEK1 and at PAK1 [3] were 5 nM and 15 nM, respectively.
As usually defined, the Ki is the dissociation constant of the complex between target and ligand, obtained from inhibition or displacement. For `COC(=O)CCC(C)C1CCC2C3C(O)CC4CC(NCCCCNCc5cccnc5)CCC4(C)C3CCC12C` (stereo not drawn) [DPM-1003], the “complex formation with other metals” value in data set [4] is listed as “limited binding”. The “binding to copper (in words)” value in data set [5] is on record as “does not bind copper with high affinity; also recorded: limited binding; also recorded: does not bind with high affinity to or form a complex with copper”. Moreover, the “survival of triple-negative breast cancer cells” value in [6] is recorded as “did not affect survival; also recorded: does not inhibit the survival”. Further, the “copper levels in liver and brain” value with TX mice is on record as “did not affect levels of copper in liver tissue; also recorded: did not suppress the levels of the metal in liver”. Moreover, the cellular copper levels entry in the data set with TNBC cells is “does not reduce copper levels”. In addition, the “survival of non-TNBC cell lines, DPM-1001 versus DPM-1003” value in the data set on non-TNBC cell lines is “did not differ from each other”. Besides, on PTP1B, the affinity, expressed as Ki, was 2000 nM. For the same compound, the “tumor volume / tumor size” value in the data set on MDA-MB-231 cells is “without effect; also recorded: not by DPM-1003; also recorded: did not reduce tumor size or inhibit tumor growth”.
